Assay results published in patent US10774080B2, “Pyrimidine compound as JAK kinase inhibitor” (THERAVANCE BIOPHARMA R&D IP, LLC, priority 2017, dated 2020).

Tests used:
[1] = tested on: TSLP-induced TARC release from PBMCs; experiment: Assay 4: TSLP-induced TARC assay in human PBMC; assay type: cell-based; conditions: 10 ng/mL TSLP, 48 hours, read-out: pIC50 for inhibition of TSLP induced TARC (converted)
Source text: Assay 4: In Vitro TSLP-Induced TARC Assay in Human PBMC
The binding of TSLP to its receptor induces a conformational change that activates JAK1 and JAK2 to phosphorylate various transcription factors including STAT3 and STAT5. In skin-resident immune cells, this triggers a cascade of intracellular events that result in cell proliferation, anti-apoptosis, dendritic cell migration, and production of Th2 cytokines and chemokines. During the acute phase of atopic dermatitis, the skin is invaded by Th2 lymphocytes. In primary peripheral blood mononuclear cells (PBMCs), TSLP has a pro-inflammatory effect by activating myeloid dendritic cells to attract and stimulate T cells. This process is mediated by thymus and activation-regulated chemokine (TARC/CCL17). […]
In this assay, it was shown that TSLP stimulation induces TARC release from PBMCs, and that this response is attenuated in a dose-dependent manner upon treatment with compound (I). […] After 48 hours, the cell supernatants were collected, and TARC was measured using Human CCL17/TARC Quantikine ELISA Kit.
For dose-response analysis, percent inhibition data were plotted vs. compound concentrations, and IC50 values were determined from a 4-parameter robust fit model with the GraphPad Prism software. Results may also be expressed as the negative logarithm of the IC50 value, pIC50.

[2] = tested on: IL-22 stimulated STAT3 phosphorylation in normal human epidermal keratinocytes; experiment: Assay 14: inhibition of IL-22 stimulated pSTAT3 in normal human epidermal keratinocytes; assay type: cell-based; conditions: Keratinocyte, read-out: pIC50 for inhibition of IL-22 induced STAT3 phosphorylation (converted)
Experimental: Assay 14: Inhibition of IL-22 Stimulated pSTAT3 in Normal Human Epidermal Keratinocytes
The potency of test compounds for inhibition of interleukin-22 (IL-22) stimulated STAT3 phosphorylation was measured in the normal human epidermal keratinocytes (ATCC) using AlphaLisa. Phosphorylated STAT3 was measured via the AlphaLISA SureFire Ultra pSTAT3 (Tyr705) kit (PerkinElmer).
Primary epidermal keratinocytes were cultured in a 37° C., 5% CO2 humidified incubator in dermal cell basal medium (ATCC) supplemented with keratinocyte growth kit (ATCC) and 1× Pen/Strep (Life Technologies). […]
After cytokine stimulation, cells were lysed with 5 ul of 5× AlphaLisa Lysis Buffer (PerkinElmer) containing 1× PhosStop and Complete tablets (Roche). […] Phosphorylated STAT3 was measured via the pSTAT3 AlphaLisa kit (PerkinElmer). […] Luminescence was measured with excitation at 689 nm and emission at […] using an EnVision plate reader (PerkinElmer) under green filtered <100 lux light.
Luminescence signals were recorded and utilized to calculate the percent inhibition values based on DMSO and controls. For dose-response analysis, percent inhibition data were plotted vs. compound concentrations, and IC50 values were determined from a 4-parameter robust fit model with the Prism software.

[3] = Assay 16: Caco-2 permeation assay; assay type: in vitro ADME; conditions: human, Caco-2, with Verapamil 25 μM (P-gp); as illustrated in Table 13; read-out: permeability class (Caco-2)
Experimental: (§1) Assay 16: Caco-2 Permeation Assay The Caco-2 permeation assay was used as an indication of skin permeability. The assay measures the rate at which test compounds in solution permeate a cell monolayer (designed to mimic the tight junction of human small intestinal monolayers). CacoReady 24-well transwell plates were obtained from […], Calif.). The compounds were evaluated at a concentration of 5 μM from 10 mM DMSO stock solutions in duplicate (n=2). The passive permeability of the compounds tested was evaluated using Caco-2 cell monolayers along with Verapamil (25 μM) to inhibit P-gp transport proteins in the apical to basolateral (A-B) direction. The experiment was conducted in a 37° C., 5% CO2 incubator. Caco-2 culture media consisted of standard filtered DMEM, FCS 10%, L-Glutamine 1% and PenStrep 1%. Basal assay plate was prepared by adding 750 μL of transport buffer to A-B wells. A CacoReadyTM plate was prepared by removing the Caco-2 media from the apical wells and replacing with fresh transport media (200 μL repeated for a total of 3 washes). Blank media (200 μL) was then replaced with diluted compound for A-B wells. To begin the incubation, the basal plate was removed from the incubator and the apical section was added on top of it. […] The permeation coefficient (Kp, mean A to B+Verapamil […]) in cm/sec was calculated as dQ (flux)/(dt×Area×concentration).

Caco-2 cell monolayers = experiment: Assay 16: Caco-2 permeation assay; assay type: in vitro ADME; conditions: 5 μM, A to B, with Verapamil (25 μM), 120 minutes
Experimental: as §1

Q: For CCS(=O)(=O)N1[C@@H]2CCC[C@H]1C[C@H](N(C)c1nc(CO)c(F)c(Nc3cc(C)[nH]n3)n1)C2 [Compound (I), (2-(((1R,3s,5S)-9-(ethylsulfonyl)-9-azabicyclo[3.3.1]nonan-3-yl)(methyl)amino)-5-fluoro-6-((5-methyl-1H-pyrazol-3-yl)amino)pyrimidin-4-yl)methanol], which IC50 [1] is on record?
A: Its IC50 is 15.8 nM.

Q: And the IC50 [2]?
A: Its IC50 is 3.98 nM.

Q: What about the Papp A→B at 120 min, 5 μM [3] of the same compound?
A: The Papp A→B at 120 min, 5 μM was > 20 ×10⁻⁶ cm/s.

Q: And the “Cacoverap Kp” value (Caco-2 cell monolayers)?
A: The value was 42.3 ×10⁻⁶ cm/s.
